Reference: ChEMBL document CHEMBL1201862, “PubChem BioAssay data set” (2004)
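Dose response: 5 concentrations. Exposure: 48 h. Format: 96-well plates. Endpoint: linear interpolation; highest concentration if not reached. GI50: concentration for 50% inhibition of growth.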 Active and inactive are the calls of the source. No stated cut-off is given here; in the data, active = GI50 up to about 1.1 µM and inactive = higher.

How the values were obtained:
Experiment in all cases: NCI anticancer screen, dose series, 48 h
SR = tested on: SR
UO-31 = tested on: UO-31
CCRF-CEM = tested on: CCRF-CEM
UACC-62 = tested on: UACC-62
UACC-257 = tested on: UACC-257
SK-OV-3 = tested on: SK-OV-3
SW-620 = tested on: SW-620
CAKI-1 = tested on: CAKI-1
Hs-578T = tested on: Hs-578T
HOP-62 = tested on: HOP-62
NCI-H226 = tested on: NCI-H226
HCC 2998 = tested on: HCC 2998
SK-MEL-28 = tested on: SK-MEL-28
SNB-75 = tested on: SNB-75
MDA-MB-231 = tested on: MDA-MB-231
A498 = tested on: A498
KM12 = tested on: KM12
SF-295 = tested on: SF-295
LOX IMVI = tested on: LOX IMVI
OVCAR-4 = tested on: OVCAR-4

| SMILES | GI50 (SR) | GI50 (UO-31) | GI50 (CCRF-CEM) | GI50 (UACC-62) | GI50 (UACC-257) | GI50 (SK-OV-3) | GI50 (SW-620) | GI50 (CAKI-1) | GI50 (Hs-578T) | GI50 (HOP-62) | GI50 (NCI-H226) | GI50 (HCC 2998) | GI50 (SK-MEL-28) | GI50 (SNB-75) | GI50 (MDA-MB-231) | GI50 (A498) | GI50 (KM12) | GI50 (SF-295) | GI50 (LOX IMVI) | GI50 (OVCAR-4) |
| --- | --- | --- | --- | --- | --- | --- | --- | --- | --- | --- | --- | --- | --- | --- | --- | --- | --- | --- | --- | --- |
| Cc1ccc(NCCN(C)C)c2c(=O)c3cc(O)ccc3sc12 | 0.241 µM (active) | 4.23 µM (inactive) | 0.284 µM (active) | 2.95 µM (inactive) | 8 µM (inactive) | 3.33 µM (inactive) | 1.19 µM (inactive) | 1.31 µM (inactive) | 0.933 µM (active) | 0.586 µM (active) | 4.48 µM (inactive) | 3.79 µM (inactive) | 6.01 µM (inactive) | 1.34 µM (inactive) | 1.87 µM (inactive) | 6.79 µM (inactive) | 4.28 µM (inactive) | 5.27 µM (inactive) | 1.05 µM (active) | 7.21 µM (inactive) |
| CC(=O)Oc1cc2c(cc1OC(C)=O)[C@H]1CC[C@]3(C)[C@@H](OC(C)=O)CC[C@H]3[C@@H]1CC2 | 0.45 µM (active) | 2.19 µM (inactive) |  |  | 9.66 µM (inactive) | 6.38 µM (inactive) | 1.9 µM (inactive) | 3.22 µM (inactive) | 1.87 µM (inactive) |  |  | 7.71 µM (inactive) | 4.15 µM (inactive) | 0.162 µM (active) | 7.41 µM (inactive) | 11.8 µM (inactive) | 8.91 µM (inactive) | 4.49 µM (inactive) | 2.92 µM (inactive) | 5.61 µM (inactive) |
| O=c1cnc2cc3ccccc3cc2[nH]1 | > 100 µM (inactive) | 46.9 µM (inactive) | > 100 µM (inactive) |  | > 100 µM (inactive) | > 100 µM (inactive) | > 100 µM (inactive) | > 100 µM (inactive) | > 100 µM (inactive) | > 100 µM (inactive) | > 100 µM (inactive) | > 100 µM (inactive) | > 100 µM (inactive) | 37.8 µM (inactive) | 75.7 µM (inactive) | > 100 µM (inactive) | > 100 µM (inactive) | > 100 µM (inactive) | > 100 µM (inactive) | > 100 µM (inactive) |
| NC(=O)N/N=C1/c2ccccc2-n2nccc21 | 39 µM (inactive) |  | 37.6 µM (inactive) | 48.6 µM (inactive) | > 100 µM (inactive) | > 100 µM (inactive) | > 100 µM (inactive) | 52.5 µM (inactive) | 85.5 µM (inactive) | 70.1 µM (inactive) | 45.5 µM (inactive) | 52.5 µM (inactive) | > 100 µM (inactive) | 28.8 µM (inactive) | > 100 µM (inactive) | 38.7 µM (inactive) | > 100 µM (inactive) | > 100 µM (inactive) | 51.3 µM (inactive) | > 100 µM (inactive) |
| CC1(C)O[C@@H]2COC(=O)[C@@H]2O1 | > 100 µM (inactive) | > 100 µM (inactive) | > 100 µM (inactive) | > 100 µM (inactive) | > 100 µM (inactive) | > 100 µM (inactive) | > 100 µM (inactive) | > 100 µM (inactive) | > 100 µM (inactive) |  | > 100 µM (inactive) | > 100 µM (inactive) | > 100 µM (inactive) | > 100 µM (inactive) | > 100 µM (inactive) | > 100 µM (inactive) | > 100 µM (inactive) | > 100 µM (inactive) | > 100 µM (inactive) | > 100 µM (inactive) |
| COc1ccccc1-n1cnc2c1=NC(C)(C)NC=2C(N)=O | > 100 µM (inactive) |  | > 100 µM (inactive) | > 100 µM (inactive) | > 100 µM (inactive) | > 100 µM (inactive) | > 100 µM (inactive) | > 100 µM (inactive) | > 100 µM (inactive) | > 100 µM (inactive) | > 100 µM (inactive) | > 100 µM (inactive) | > 100 µM (inactive) | > 100 µM (inactive) | > 100 µM (inactive) | > 100 µM (inactive) | > 100 µM (inactive) | > 100 µM (inactive) | > 100 µM (inactive) | > 100 µM (inactive) |
| CCOC(=O)C(O)Cc1cnc2ccccc2n1 (stereo not given) | > 100 µM (inactive) | > 100 µM (inactive) | 44.9 µM (inactive) | > 100 µM (inactive) | > 100 µM (inactive) | > 100 µM (inactive) | > 100 µM (inactive) | > 100 µM (inactive) | > 100 µM (inactive) | > 100 µM (inactive) |  | > 100 µM (inactive) | > 100 µM (inactive) | > 100 µM (inactive) | > 100 µM (inactive) | > 100 µM (inactive) | > 100 µM (inactive) |  | > 100 µM (inactive) | > 100 µM (inactive) |
| Clc1ccc(NCNC2Nc3ccccc3N2)cc1Cl | 37.1 µM (inactive) | 27.4 µM (inactive) | 25 µM (inactive) | 2.26 µM (inactive) | > 100 µM (inactive) | 48.8 µM (inactive) | 27.6 µM (inactive) | 34.6 µM (inactive) | > 100 µM (inactive) | 72.1 µM (inactive) | 27.5 µM (inactive) | 73.6 µM (inactive) | 70.5 µM (inactive) | 19.8 µM (inactive) | 16.7 µM (inactive) | > 100 µM (inactive) | 11.9 µM (inactive) | 20.4 µM (inactive) | 4.63 µM (inactive) |  |
| OB1OCc2ccccc21 [BENZOXABOROLE] | 52.7 µM (inactive) | 32.4 µM (inactive) | 18 µM (inactive) | 35.9 µM (inactive) | 28.6 µM (inactive) | 16.1 µM (inactive) | 30.7 µM (inactive) | 34.7 µM (inactive) | 62.1 µM (inactive) | 26.7 µM (inactive) | 39.5 µM (inactive) |  | 21.6 µM (inactive) |  | 77.1 µM (inactive) | 34.5 µM (inactive) | 65.9 µM (inactive) | 12.1 µM (inactive) | 39 µM (inactive) | 32.4 µM (inactive) |
| CC(C)Cc1cnc(CC(C)C)c(=O)[nH]1 | > 100 µM (inactive) | > 100 µM (inactive) | > 100 µM (inactive) | > 100 µM (inactive) | > 100 µM (inactive) | > 100 µM (inactive) | > 100 µM (inactive) | > 100 µM (inactive) | > 100 µM (inactive) | > 100 µM (inactive) |  | > 100 µM (inactive) | > 100 µM (inactive) | > 100 µM (inactive) | > 100 µM (inactive) | > 100 µM (inactive) | > 100 µM (inactive) | > 100 µM (inactive) | > 100 µM (inactive) | > 100 µM (inactive) |
| Clc1ccc(-c2nn3c(COc4cccc(OCc5nnc6sc(-c7ccc(Cl)cc7)nn56)c4)nnc3s2)cc1 | 11.2 µM (inactive) | 19.5 µM (inactive) |  | 23.2 µM (inactive) | 26.1 µM (inactive) | 51.3 µM (inactive) | 25.9 µM (inactive) | 22 µM (inactive) | 59 µM (inactive) | 56.6 µM (inactive) | > 100 µM (inactive) | 32.1 µM (inactive) | 7.78 µM (inactive) | 23 µM (inactive) | 21.2 µM (inactive) | 15.7 µM (inactive) | 29.5 µM (inactive) | 31.3 µM (inactive) | 26.3 µM (inactive) | 12.9 µM (inactive) |
| O=C(CC(C(=O)c1ccco1)c1cccs1)c1cccs1 (stereo not given) | 34.6 µM (inactive) | 30.7 µM (inactive) |  | 36.3 µM (inactive) | 24.8 µM (inactive) | 87.1 µM (inactive) | 94.8 µM (inactive) | > 100 µM (inactive) | 49.9 µM (inactive) | 87.7 µM (inactive) | > 100 µM (inactive) | 49.2 µM (inactive) | 42.7 µM (inactive) | 44.4 µM (inactive) | > 100 µM (inactive) | 96.2 µM (inactive) | 40.6 µM (inactive) | 38.8 µM (inactive) | 37.3 µM (inactive) | 36 µM (inactive) |
| Cn1c2c(c3ccccc31)CC(=O)N1CCCCC1C21OCCO1 (stereo not given) | > 100 µM (inactive) | > 100 µM (inactive) | > 100 µM (inactive) | > 100 µM (inactive) | > 100 µM (inactive) | > 100 µM (inactive) | > 100 µM (inactive) | > 100 µM (inactive) | > 100 µM (inactive) | > 100 µM (inactive) | > 100 µM (inactive) | > 100 µM (inactive) | > 100 µM (inactive) | > 100 µM (inactive) | > 100 µM (inactive) | > 100 µM (inactive) | > 100 µM (inactive) | > 100 µM (inactive) |  | > 100 µM (inactive) |
| CCN(CC)C(=O)C1=C(C)NC(C)=C(C(=O)N(CC)CC)C1 | > 100 µM (inactive) | 81.1 µM (inactive) | > 100 µM (inactive) | > 100 µM (inactive) | > 100 µM (inactive) | > 100 µM (inactive) | > 100 µM (inactive) | > 100 µM (inactive) | 44.7 µM (inactive) | > 100 µM (inactive) |  | > 100 µM (inactive) | > 100 µM (inactive) | 14.5 µM (inactive) | 39.4 µM (inactive) | > 100 µM (inactive) | > 100 µM (inactive) | > 100 µM (inactive) | > 100 µM (inactive) | > 100 µM (inactive) |
| O=C1CC(Br)c2c(Cl)sc(Cl)c21 (stereo not given) | 3.89 µM (inactive) | 4.06 µM (inactive) | 0.403 µM (active) | 11.8 µM (inactive) | 4 µM (inactive) | 16.7 µM (inactive) | 1.84 µM (inactive) | 3.1 µM (inactive) | 16.5 µM (inactive) | 6.01 µM (inactive) |  | 12 µM (inactive) | 13.6 µM (inactive) | 15.2 µM (inactive) | 9.98 µM (inactive) | 20.3 µM (inactive) | 6.58 µM (inactive) | 16.4 µM (inactive) | 1.94 µM (inactive) |  |
